Measured values taken from ChEMBL document CHEMBL4665709, “Rational Avoidance of Protease Cleavage Sites and Symmetrical End-Tagging Significantly Enhances the Stability and Therapeutic Potential of Antimicrobial Peptides” (J Med Chem, 2020).
≈ marks a conversion by molar mass, not a printed value. Calls of active or inactive are those of the source. The calls are words filed in the database; no cut-off is given here.

How the values were obtained:
Streptococcus agalactiae = assay: Antibacterial activity against Streptococcus agalactiae H92 after 18 to 24 hrs by CLSI-based broth microdilution method; assay type: functional; settings: time hrs 18-24
[1] = Stability of compound assessed as pepsin (unknown origin)-mediated drug degradation after 1 hr by SDS-PAGE analysis; assay type: ADME; settings: human
HEK-293T = assay: Cytotoxicity against HEK-293T cells assessed as reduction in cell viability at lower concentration by MTT assay; assay type: cell-based; settings: human
[2] = Therapeutic index, ratio of MHC for human RBC to geometric mean of peptide MIC for Escherichia coli ATCC 25922; assay type: toxicity; settings: human red blood cells (RBC), read-out: TI
[3] = Therapeutic index, ratio of MHC for human RBC to geometric mean of peptide MIC for Staphylococcus aureus 11011; assay type: toxicity; settings: human red blood cells (RBC), read-out: TI
Staphylococcus aureus [4] = assay: Antibacterial activity against Staphylococcus aureus 29213 with 0.0625-2 mg/mL pepsin for 1 hr followed by test compound addition measured after 4 to 8 hrs by CLSI-based broth microdilution method; assay type: functional, organism-based; settings: time hrs 4-8
[5] = Therapeutic index, ratio of MHC for human RBC to geometric mean of peptide MIC for Escherichia coli UB1005; assay type: toxicity; settings: human red blood cells (RBC), read-out: TI
Trypsin [6] = target: T1, Trypsin (Homo sapiens, UniProt P07477+P07478+P35030); assay: Stability of compound assessed as trypsin (unknown origin)-mediated drug degradation after 1 hr by SDS-PAGE analysis; assay type: ADME, protein assay
[7] = Hemolytic activity in human RBC assessed as hemolysis at 1 uM relative to control; assay type: ADME, cell-based, Erythrocyte; settings: human red blood cells (RBC), read-out: Activity
[8] = Antibacterial activity against Salmonella pullorum 7913 after 18 to 24 hrs by CLSI-based broth microdilution method; assay type: functional, Salmonella enterica subsp. enterica serovar Pullorum; settings: Salmonella enterica, time hrs 18-24
Enterococcus faecalis = assay: Antibacterial activity against Enterococcus faecalis ATCC 29212 after 18 to 24 hrs by CLSI-based broth microdilution method; assay type: functional; settings: time hrs 18-24
[9] = Therapeutic index, ratio of MHC for human RBC to geometric mean of peptide MIC for Staphylococcus epidermidis ATCC 12228; assay type: toxicity; settings: human red blood cells (RBC), read-out: TI
[10] = Stability of compound assessed as proteinase K (unknown origin)-mediated drug degradation after 1 hr by RP-HPLC analysis; assay type: ADME; settings: human
Erythrocyte = assay: Hemolytic activity in human RBC assessed as hemolysis; assay type: ADME, cell-based
Cell membrane = assay: Induction of outer membrane permeabilization in Escherichia coli ATCC 25922 after 30 mins by NPN-dye based assay
[11] = Therapeutic index, ratio of MHC for human RBC to geometric mean of peptide MIC for methicillin-resistant Staphylococcus aureus 43300; assay type: toxicity; settings: human red blood cells (RBC), read-out: TI
Salmonella enterica = assay: Antibacterial activity against Salmonella choleraesuis 503 after 18 to 24 hrs by CLSI-based broth microdilution method; assay type: functional; settings: time hrs 18-24
Escherichia coli [12] = assay: Antibacterial activity against Escherichia coli ATCC 25922 measured after 18 to 24 hrs in presence of pepsin by CLSI-based broth microdilution method; assay type: functional, organism-based; settings: time hrs 18-24
[13] = Hemolytic activity in human RBC assessed as hemolysis at 1 to 128 uM relative to control; assay type: ADME, cell-based, Erythrocyte; settings: human red blood cells (RBC), dose 1-128 µM, read-out: Activity
[14] = Stability of compound at 100 degreeC after 30 to 90 mins; assay type: physicochemical; settings: time 30-90 min
[15] = Therapeutic index, ratio of MHC for human RBC to geometric mean of peptide MIC for Salmonella typhimurium 14028; assay type: toxicity; settings: human red blood cells (RBC), read-out: TI
RAW264.7 = assay: Cytotoxicity against mouse RAW264.7 cells assessed as reduction in cell viability lower concentration by MTT assay; assay type: cell-based
Escherichia coli [16] = assay: Antibacterial activity against Escherichia coli ATCC 25922 measured after 18 to 24 hrs in presence of proteinase K by CLSI-based broth microdilution method; assay type: functional, organism-based; settings: time hrs 18-24
Staphylococcus aureus [17] = assay: Antibacterial activity against Staphylococcus aureus 29213 with 0.0625-2 mg/mL proteinase K for 1 hr followed by test compound addition measured after 4 to 8 hrs by CLSI-based broth microdilution method; assay type: functional, organism-based; settings: time hrs 4-8
[18] = Therapeutic index, ratio of MHC for human RBC to geometric mean of peptide MIC for Staphylococcus aureus ATCC 29213; assay type: toxicity; settings: human red blood cells (RBC), read-out: TI
[19] = Therapeutic index, ratio of MHC for human RBC to geometric mean of peptide MIC for Salmonella choleraesuis 503; assay type: toxicity; settings: human red blood cells (RBC), read-out: TI
Escherichia coli [20] = assay: Antibacterial activity against Escherichia coli ATCC 25922 measured after 18 to 24 hrs in presence of chymotrypsin by CLSI-based broth microdilution method; assay type: functional, organism-based; settings: time hrs 18-24
[21] = Therapeutic index, ratio of MHC for human RBC to geometric mean of peptide MIC for Streptococcus agalactiae H92; assay type: toxicity; settings: human red blood cells (RBC), read-out: TI
[22] = Stability of compound assessed as pepsin (unknown origin)-mediated drug degradation after 1 hr by RP-HPLC analysis; assay type: ADME; settings: human
[23] = Stability of compound assessed as chymotrypsin (unknown origin)-mediated drug degradation after 1 hr by SDS-PAGE analysis; assay type: ADME; settings: human
[24] = Therapeutic index, ratio of MHC for human RBC to geometric mean of peptide MIC for Salmonella pullorum 7913; assay type: toxicity; settings: human red blood cells (RBC), read-out: TI
Trypsin [25] = target: T1, Trypsin; assay: Stability of compound assessed as trypsin (unknown origin)-mediated drug degradation after 1 hr by RP-HPLC analysis; assay type: ADME, protein assay
[26] = Stability of compound assessed as chymotrypsin (unknown origin)-mediated drug degradation after 1 hr by RP-HPLC analysis; assay type: ADME; settings: human
Escherichia coli [27] = assay: Antibacterial activity against Escherichia coli ATCC 25922 measured after 18 to 24 hrs in presence of trypsin by CLSI-based broth microdilution method; assay type: functional, organism-based; settings: time hrs 18-24
[28] = Therapeutic index, ratio of MHC for human RBC to geometric mean of peptide MIC for Salmonella typhimurium 7731; assay type: toxicity; settings: human red blood cells (RBC), read-out: TI
Staphylococcus aureus [29] = assay: Antibacterial activity against Staphylococcus aureus 29213 with 0.0625-2 mg/mL chymotrypsin for 1 hr followed by test compound addition measured after 4 to 8 hrs by CLSI-based broth microdilution method; assay type: functional, organism-based; settings: time hrs 4-8
Staphylococcus aureus [30] = assay: Antibacterial activity against Staphylococcus aureus 29213 with 0.0625-2 mg/mL trypsin for 1 hr followed by test compound addition measured after 4 to 8 hrs by CLSI-based broth microdilution method; assay type: functional, organism-based; settings: time hrs 4-8
[31] = Therapeutic index, ratio of MHC for human RBC to geometric mean of peptide MIC for Enterococcus faecalis ATCC 29212; assay type: toxicity; settings: human red blood cells (RBC), read-out: TI
[32] = Stability of compound assessed as proteinase K (unknown origin)-mediated drug degradation after 1 hr by SDS-PAGE analysis; assay type: ADME; settings: human

In the case of CC[C@H](C)[C@H](NC(=O)CN)C(=O)NCC(=O)N[C@@H](C)C(=O)N[C@H](C(=O)N[C@@H](CC(C)C)C(=O)N[C@@H](CCCCN)C(=O)N[C@H](C(=O)N[C@@H](CC(C)C)C(=O)N[C@H](C(=O)N[C@H](C(=O)NCC(=O)N[C@@H](CC(C)C)C(=O)N1CCC[C@H]1C(=O)N[C@@H](C)C(=O)N[C@@H](CC(C)C)C(=O)N[C@H](C(=O)N[C@@H](CO)C(=O)N[C@@H](Cc1c[nH]c2ccccc12)C(=O)N[C@H](C(=O)N[C@@H](CCCCN)C(=O)N[C@@H](CCCNC(=N)N)C(=O)N[C@@H](CCCCN)C(=O)N[C@@H](CCCNC(=N)N)C(=O)N[C@@H](CCC(N)=O)C(=O)N[C@@H](CCC(N)=O)C(N)=O)[C@@H](C)CC)[C@@H](C)CC)[C@@H](C)O)[C@@H](C)O)C(C)C)C(C)C [MELITTIN], the MIC (Streptococcus agalactiae) is reported as 1 µM (≈ 2.85 µg/mL), the Stabilty [1] is reported as “Unstable” and the Activity (HEK-293T) is reported as “Toxic”. The selectivity ratio [2] was 0.4, the selectivity ratio [3] was 0.56 and the Activity (Staphylococcus aureus [4]) was “inactive”. The selectivity ratio [5] was 0.4, the Stabilty (Trypsin [6]) was “Unstable” and the hemolysis at 1 µM [7] was 10.1%. It also gave an MIC [8] of 4 µM (≈ 11.4 µg/mL), an MIC (Enterococcus faecalis) of 2 µM (≈ 5.69 µg/mL) and a selectivity ratio [9] of 0.56. For the same compound, the Stabilty [10] was “Unstable”, the MHC (Erythrocyte) was 1 µM and the Activity (Cell membrane) was “Dose-dependent effect”. The selectivity ratio [11] was 0.56, the MIC (Salmonella enterica) was 4 µM (≈ 11.4 µg/mL) and the Activity (Escherichia coli [12]) was “inactive”. For the same compound, the hemolysis at up to 128 µM [13] was less than 5%, the Stabilty [14] was “Stable” and the selectivity ratio [15] was 0.4. For the same compound, the Activity (RAW264.7) was “Toxic”, the Activity (Escherichia coli [16]) was “inactive” and the Activity (Staphylococcus aureus [17]) was “inactive”. For the same compound, the selectivity ratio [18] was 0.56, the selectivity ratio [19] was 0.4 and the Activity (Escherichia coli [20]) was “inactive”. For the same compound, the selectivity ratio [21] was 0.56, the Stabilty [22] was “Unstable” and the Stabilty [23] was “Unstable”. For the same compound, the selectivity ratio [24] was 0.4, the Stabilty (Trypsin [25]) was “Unstable” and the Stabilty [26] was “Unstable”. The Activity (Escherichia coli [27]) was “inactive”, the selectivity ratio [28] was 0.4 and the Activity (Staphylococcus aureus [29]) was “inactive”. For the same compound, the Activity (Staphylococcus aureus [30]) was “inactive”, the selectivity ratio [31] was 0.56 and the Stabilty [32] was “Unstable”.
